# Assay results published in the NIST ThermoML archive (doi:10.1016/j.jct.2018.09.027).
# Numbers after ± are expanded uncertainties.
# Conditions: Crystal; for vapor or sublimation pressure: Calculated from knudsen effusion weight loss
smiles,measurement,setting,value
"O=C(O)c1cc(O)c(O)c(O)c1 [3,4,5-trihydroxybenzoic acid]",vapor or sublimation pressure,432.88 K,9.61e-05 ± 2e-05 kPa
same,vapor or sublimation pressure,434.44 K,0.0001197 ± 2e-05 kPa
same,vapor or sublimation pressure,436.46 K,0.0001349 ± 2.1e-05 kPa
same,vapor or sublimation pressure,438.62 K,0.0001688 ± 2.1e-05 kPa
same,vapor or sublimation pressure,440.5 K,0.0001779 ± 2.1e-05 kPa
same,vapor or sublimation pressure,442.58 K,0.0002341 ± 2.2e-05 kPa
same,vapor or sublimation pressure,444.57 K,0.000257 ± 2.2e-05 kPa
same,vapor or sublimation pressure,446.54 K,0.000313 ± 2.3e-05 kPa
same,vapor or sublimation pressure,448.7 K,0.0003927 ± 2.4e-05 kPa
same,vapor or sublimation pressure,450.78 K,0.0004674 ± 2.6e-05 kPa
same,vapor or sublimation pressure,452.6 K,0.0005635 ± 2.8e-05 kPa
same,vapor or sublimation pressure,454.63 K,0.0006284 ± 3e-05 kPa
same,vapor or sublimation pressure,456.47 K,0.0008057 ± 3.5e-05 kPa
same,vapor or sublimation pressure,458.78 K,0.0009376 ± 3.9e-05 kPa
same,Normal melting temperature,DTA,263.5 ± 0.7 °C
